# Laboratory results from patent publication US12522594B2, “2-heteroaryl-3-oxo-2,3-dihydropyridazine-4-carboxamides for the treatment of cancer” (Deutsches Krebsforschungszentrum, priority 2017, dated 2026).
# How the values were obtained:
# Format in all cases: cell-based
# [1] = target: T1, AHR (Homo sapiens, UniProt P35869); experiment: In vitro assay 1: antagonism in human cell line (transactivation assay, U87 cells prestimulated with kynurenic acid, DRE firefly luciferase reporter); design: host or cells: U87 glioblastoma cells, stably transfected with DRE firefly luciferase and renilla reporter constructs; conditions: 150 uM kynurenic acid, 20 hours, read-out: Assay 1: AHR-luc Hum Antagonism IC50
# T1 sequence (P35869 11-848): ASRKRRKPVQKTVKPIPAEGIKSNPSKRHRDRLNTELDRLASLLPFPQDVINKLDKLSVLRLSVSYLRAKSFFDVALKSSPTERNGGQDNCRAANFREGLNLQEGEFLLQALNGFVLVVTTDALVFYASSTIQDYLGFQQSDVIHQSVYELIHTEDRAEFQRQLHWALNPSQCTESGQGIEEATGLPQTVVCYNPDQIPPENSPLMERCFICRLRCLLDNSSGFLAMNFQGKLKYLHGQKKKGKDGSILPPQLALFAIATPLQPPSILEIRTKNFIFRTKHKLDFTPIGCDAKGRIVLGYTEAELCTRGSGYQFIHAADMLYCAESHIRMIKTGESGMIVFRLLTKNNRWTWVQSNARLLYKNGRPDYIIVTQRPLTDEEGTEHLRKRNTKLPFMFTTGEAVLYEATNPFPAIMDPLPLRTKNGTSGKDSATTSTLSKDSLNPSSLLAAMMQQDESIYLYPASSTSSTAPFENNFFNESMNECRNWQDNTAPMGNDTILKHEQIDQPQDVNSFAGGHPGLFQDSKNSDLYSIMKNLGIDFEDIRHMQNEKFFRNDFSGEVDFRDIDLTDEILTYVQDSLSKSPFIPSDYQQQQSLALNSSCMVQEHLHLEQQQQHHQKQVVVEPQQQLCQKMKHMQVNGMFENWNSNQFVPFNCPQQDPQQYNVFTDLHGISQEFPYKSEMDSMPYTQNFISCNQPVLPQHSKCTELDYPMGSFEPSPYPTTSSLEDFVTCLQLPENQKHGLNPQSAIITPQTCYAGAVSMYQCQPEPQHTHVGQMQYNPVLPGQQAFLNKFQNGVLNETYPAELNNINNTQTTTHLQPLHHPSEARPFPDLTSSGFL
# Method in brief: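 Antagonism measured after kynurenic acid prestimulation in U87 cells that express AHR endogenously and stably harbor a firefly luciferase gene under DRE control plus a constitutive renilla construct. Positive and negative controls served for normalization.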
# [2] = target: T1, AHR; experiment: In vitro assay 2: agonism in human cell line (transactivation assay, U87 cells, DRE firefly luciferase reporter); design: host or cells: U87 glioblastoma cells, stably transfected with DRE firefly luciferase and renilla reporter constructs; conditions: no kynurenic acid, 20 hours, read-out: Assay 2: AHR-luc Hum Agonism IC50
# Method in brief: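 Agonist readout: DRE firefly luciferase, with constitutive renilla reporter, in stably transfected U87 cells expressing AHR endogenously. Normalization used positive control (300 uM kynurenic acid) and negative control.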
# [3] = target: T1, AHR; experiment: In vitro assay 3: AHR-regulated CYP1A1 expression in human cell line (U937, qPCR, KA stimulation); conditions: U937 cells, 200 uM KA, 6 hours, CYP1A1 expression by qPCR; read-out: Assay 3: Hum CYP1A1 Antagonism IC50
# Method in brief: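 U937 human monocytic cells were stimulated with 200 uM KA for 6 h, with or without compound at eight concentrations from 1 nM to 3 uM, in duplicate. CYP1A1 mRNA was quantified by Taqman qPCR as fold expression normalised to HPRT. Unstimulated cells served as negative control.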
IC50 [1] [nM],IC50 [2] [nM],IC50 [3] [nM],SMILES
5.8,> 20000,10.9,"O=C(NC[C@H](O)C(F)(F)F)c1cc(-c2ccc(OC(F)F)cc2)nn(-c2cccnc2)c1=O [Example 314, 6-[4-(Difluoromethoxy)phenyl]-3-oxo-2-(pyridin-3-yl)-N-[(2S)-3,3,3-trifluoro-2-hydroxypropyl]-2,3-dihydropyridazine-4-carboxamide]"
10.6,> 20000,22.7,"CC(C)(O)CNC(=O)c1cc(-c2ccc(C(F)(F)F)nc2)nn(-c2cnsc2)c1=O [Example 240, N-(2-Hydroxy-2-methylpropyl)-3-oxo-2-(1,2-thiazol-4-yl)-6-[6-(trifluoromethyl)pyridin-3-yl]-2,3-dihydropyridazine-4-carboxamide]"
1.7,> 20000,1.69,"C[C@H](NC(=O)c1cc(-c2ccc(N(C)C)cc2)nn(-c2cnn(C)c2)c1=O)C(C)(C)O [Example 310, 6-[4-(Dimethylamino)phenyl]-N-[(2S)-3-hydroxy-3-methylbutan-2-yl]-2-(1-methyl-1H-pyrazol-4-yl)-3-oxo-2,3-dihydropyridazine-4-carboxamide]"
31.9,> 20000,89.9,"O=C(NC[C@H](O)C(F)F)c1cc(-c2ccc(OC(F)(F)F)cc2)nn(-c2cccnc2)c1=O [Example 295, N-[(2S)-3,3-Difluoro-2-hydroxypropyl]-3-oxo-2-(pyridin-3-yl)-6-[4-(trifluoromethoxy)phenyl]-2,3-dihydropyridazine-4-carboxamide]"
9.38,> 20000,7.86,"O=C(NC[C@H](O)C(F)(F)F)c1cc(-c2ccc(Cl)cc2)nn(-c2cncnc2)c1=O [Example 237, 6-(4-Chlorophenyl)-3-oxo-2-(pyrimidin-5-yl)-N-[(2S)-3,3,3-trifluoro-2-hydroxypropyl]-2,3-dihydropyridazine-4-carboxamide]"
7.57,> 20000,10.4,"O=C(NCC(O)C(F)F)c1cc(-c2ccc(C(F)(F)F)cc2)nn(-c2cccnc2)c1=O (single isomer, unassigned; (-)) [Example 230, (−)-N-(3,3-Difluoro-2-hydroxypropyl)-3-oxo-2-(pyridin-3-yl)-6-[4-(trifluoromethyl)phenyl]-2,3-dihydropyridazine-4-carboxamide]"
15.9,> 20000,11.9,"Cn1cc(-n2nc(-c3ccc(C(F)F)cc3)cc(C(=O)N[C@@H]3COC[C@@H]3O)c2=O)cn1 (single isomer, unassigned) [Example 315, 6-[4-(Difluoromethyl)phenyl]-N-[(cis)-4-hydroxytetrahydro-furan-3-yl]-2-(1-methyl-1H-pyrazol-4-yl)-3-oxo-2,3-dihydropyridazine-4-carboxamide]"
35.5,> 20000,22.3,"C[C@H](NC(=O)c1cc(-c2ccc(C(F)F)cc2)nn(-c2cccnc2)c1=O)C(C)(C)O [Example 319, 6-[4-(Difluoromethyl)phenyl]-N-[(2S)-3-hydroxy-3-methylbutan-2-yl]-3-oxo-2-(pyridin-3-yl)-2,3-dihydropyridazine-4-carboxamide]"

# The next lines start with the compound.
SMILES,IC50 [1] [nM],IC50 [2] [nM],IC50 [3] [nM]
"Cn1cc(-n2nc(-c3ccc(Cl)cc3)cc(C(=O)N[C@@H]3COC[C@@H]3O)c2=O)cn1 (single isomer, unassigned; enantiomer 1) [Example 44, 6-(4-Chlorophenyl)-N-[(cis)-4-hydroxytetrahydrofuran-3-yl]-2-(1-methyl-1H-pyrazol-4-yl)-3-oxo-2,3-dihydropyridazine-4-carboxamide, Enantiomer 1]",11.6,> 20000,9.43
"O=C(N[C@H]1COC[C@H]1O)c1cc(-c2ccc(Cl)cc2)nn(-c2cccnc2)c1=O (single isomer, unassigned) [Example 173, 6-(4-Chlorophenyl)-N-[(cis)-4-hydroxytetrahydrofuran-3-yl]-3-oxo-2-(pyridin-3-yl)-2,3-dihydropyridazine-4-carboxamide]",54.9,> 20000,140
"C[C@@H](CO)NC(=O)c1cc(-c2ccc(Cl)cc2)nn(-c2ccn(C)n2)c1=O [Example 192, 6-(4-Chlorophenyl)-N-[(2S)-1-hydroxypropan-2-yl]-2-(1-methyl-1H-pyrazol-3-yl)-3-oxo-2,3-dihydropyridazine-4-carboxamide]",341,> 20000,4.3
"O=C(N[C@H]1CCC[C@@H]1O)c1cc(-c2ccc(C(F)F)cc2)nn(-c2cccnc2)c1=O [Example 139, 6-[4-(Difluoromethyl)phenyl]-N-[(1S,2S)-2-hydroxycyclopentyl]-3-oxo-2-(pyridin-3-yl)-2,3-dihydropyridazine-4-carboxamide]",9.2,> 20000,9.16
"Cn1cc(-n2nc(-c3ccc(Cl)cc3)cc(C(=O)N[C@H]3CCC[C@H]3O)c2=O)cn1 [Example 50, 6-(4-Chlorophenyl)-N-[(1S,2R)-2-hydroxycyclopentyl]-2-(1-methyl-1H-pyrazol-4-yl)-3-oxo-2,3-dihydropyridazine-4-carboxamide]",8.39,> 20000,6.74
"O=C(NCC(O)C(F)(F)F)c1cc(-c2ccc(Cl)cc2)nn(-c2cccnc2)c1=O (racemic) [Example 78, 6-(4-Chlorophenyl)-3-oxo-2-(pyridin-3-yl)-N-[(2RS)-3,3,3-trifluoro-2-hydroxypropyl]-2,3-dihydropyridazine-4-carboxamide]",6.68,> 20000,4.81
"O=C(N[C@H]1COC[C@@H]1O)c1cc(-c2ccc(Cl)cc2)nn(-c2cccnc2)c1=O (single isomer, unassigned; enantiomer 2) [Example 170, 6-(4-Chlorophenyl)-N-[(trans)-4-hydroxytetrahydrofuran-3-yl]-3-oxo-2-(pyridin-3-yl)-2,3-dihydropyridazine-4-carboxamide, Enantiomer 2]",57.3,> 20000,22.4
"C[C@@H](CO)NC(=O)c1cc(-c2ccc(OC(F)(F)F)cc2)nn(-c2cnn(C)c2)c1=O [Example 53, N-[(2S)-1-Hydroxypropan-2-yl]-2-(1-methyl-1H-pyrazol-4-yl)-3-oxo-6-[4-(trifluoromethoxy)phenyl]-2,3-dihydropyridazine-4-carboxamide]",11.6,> 20000,11.1
"O=C(NC[C@H](O)CO)c1cc(-c2ccc(Cl)cc2)nn(-c2cccnc2)c1=O [Example 72, (−)-6-(4-Chlorophenyl)-N-[(2S)-2,3-dihydroxypropyl]-3-oxo-2-(pyridin-3-yl)-2,3-dihydropyridazine-4-carboxamide]",182,> 20000,495
"C[C@@H](CO)NC(=O)c1cc(-c2ccc(C(F)(F)F)cc2)nn(-c2cnn(C)c2)c1=O [Example 39, (+)-N-[(2S)-1-Hydroxypropan-2-yl]-2-(1-methyl-1H-pyrazol-4-yl)-3-oxo-6-[4-(trifluoromethyl)phenyl]-2,3-dihydropyridazine-4-carboxamide]",2.08,> 20000,3.39
"C[C@@H](CO)NC(=O)c1cc(-c2ccc(Cl)cc2)nn(-c2cccnc2)c1=O [Example 68, 6-(4-Chlorophenyl)-N-[(2S)-1-hydroxypropan-2-yl]-3-oxo-2-(pyridin-3-yl)-2,3-dihydropyridazine-4-carboxamide]",24.2,> 20000,21.8
"C[C@H](CO)NC(=O)c1cc(-c2ccc(C(F)(F)F)cc2)nn(-c2cnn(C)c2)c1=O [Example 38, (−)-N-[(2R)-1-Hydroxypropan-2-yl]-2-(1-methyl-1H-pyrazol-4-yl)-3-oxo-6-[4-(trifluoromethyl)phenyl]-2,3-dihydropyridazine-4-carboxamide]",34.3,> 20000,36.2
